Counter-ions that a name gives are not always drawn.
How the values were obtained:
GSK3β = GSK3β (Homo sapiens, UniProt P49841); experiment: Inhibitory activity against GSK3β (33P-ATP phosphorylation of prephosphorylated GS1 peptide); type: biochemical; conditions: protocol 4: commercial GSK3beta (Millipore), 7.5 μM GS1 peptide, 10 μM ATP, 90 minutes at room temperature
Procedure: Test Example: Inhibitory Activity of the Medicament of the Present Invention against GSK3β: Four different protocols can be used. In a first protocol: 7.5 μM of prephosphorylated GS1 peptide and 10 μM ATP (containing 300,000 cpm of ^33P-ATP) were incubated in 25 mM Tris-HCl, pH 7.5, 0.6 mM DTT, 6 mM MgCl2, 0.6 mM EGTA, 0.05 mg/ml BSA buffer for 1 hour at room temperature in the presence of GSK3beta (total reaction volume: 100 microliters). In a second protocol: 4.1 μM of prephosphorylated GS1 peptide and 42 μM ATP (containing 260,000 cpm ^33P-ATP) were incubated in 80 mM Mes-NaOH, pH 6.5, 1 mM Mg acetate, 0.5 mM EGTA, 5 mM 2-mercaptoethanol, 0.02% Tween 20, 10% glycerol buffer for 2 hours at room temperature in the presence of GSK3beta. In a third protocol: 7.5 μM of prephosphorylated GS1 peptide and 10 μM ATP (containing 300,000 cpm of ^33P-ATP) were incubated in 50 mM Hepes, pH 7.2, 1 mM DTT, 1 mM MgCl2, 1 mM EGTA, 0.01% Tween 20 buffer for one hour at room temperature in the presence of GSK3beta (total reaction volume: 100 microliters). In a fourth protocol: 7.5 μM of prephosphorylated GS1 peptide and 10 μM ATP (containing 300,000 cpm of ^33P-ATP) were incubated in 50 mM Hepes, pH 7.2, 1 mM DTT, 1 mM MgCl2, 1 mM EGTA, 0.01% Tween 20 buffer for 90 minutes at room temperature in the presence of commercial GSK3beta (Millipore) (total reaction volume: 100 microliters). Inhibitors were solubilised in DMSO (final solvent concentration in the reaction medium, 1%). The reaction was stopped with 100 microliters of a solution made of 25 g polyphosphoric acid (85% P2O5), 126 ml 85% H3PO4, H2O to 500 ml and then diluted to 1:100 before use. An aliquot of the reaction mixture was then transferred to Whatman P81 cation exchange filters and rinsed with the solution described above. Incorporated ^33P radioactivity was determined by liquid scintillation spectrometry. The phosphorylated GS-1 peptide had the following sequence: NH2-[…](P)EDEE-COOH.(Woodgett, J. R. (1989) Analytical Biochemistry 180, 237-241.

GSK3β, sequence (P49841 whole entry): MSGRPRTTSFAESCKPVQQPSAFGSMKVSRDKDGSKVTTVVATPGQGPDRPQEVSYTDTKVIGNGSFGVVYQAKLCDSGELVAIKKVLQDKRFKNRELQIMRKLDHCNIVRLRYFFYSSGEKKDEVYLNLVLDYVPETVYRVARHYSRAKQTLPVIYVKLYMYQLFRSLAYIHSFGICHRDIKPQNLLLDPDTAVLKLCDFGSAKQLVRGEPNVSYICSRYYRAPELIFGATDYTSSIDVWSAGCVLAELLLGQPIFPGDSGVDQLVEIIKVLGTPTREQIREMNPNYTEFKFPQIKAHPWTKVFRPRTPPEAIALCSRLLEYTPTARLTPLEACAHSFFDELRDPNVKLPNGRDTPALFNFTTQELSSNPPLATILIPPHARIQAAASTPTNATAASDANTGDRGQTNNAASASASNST

| SMILES | melting point [°C] | IC50 (GSK3β) [nM] |
| --- | --- | --- |
| COc1ccc(Cl)cc1C(=O)NC1COCCn2c1nc(-c1ccncc1)cc2=O (racemic) [compound No. 19, (+/−)-5-Chloro-2-methoxy-N-(4-oxo-2-pyridin-4-yl-5,6,8,9-tetrahydro-4H-7-oxa-1,4a-diaza-benzocyclohepten-9-yl)-benzamide] | 235 to 237 | 2 |
| COc1ccccc1CNC1COCCn2c1nc(-c1ccncn1)cc2=O (racemic) [compound No. 21, (+/−)-9-(2-Methoxy-benzylamino)-2-pyrimidin-4-yl-5,6,8,9-tetrahydro-7-oxa-1,4a-diaza-benzocyclohepten-4-one] | – | 41 |
| CC(=O)Oc1ccccc1C(=O)NC1COCCn2c1nc(-c1ccncn1)cc2=O (racemic) [compound No. 14, (+/−)-Acetic acid 2-(4-oxo-2-pyrimidin-4-yl-5,6,8,9-tetrahydro-4H-7-oxa-1,4a-diaza-benzocyclohepten-9-ylcarbamoyl)-phenyl ester] | 202 to 204 | 10 |
| COc1ccccc1CNC1COCCn2c1nc(-c1ccncn1)cc2=O (racemic) (as salt: HCl) [compound No. 21, (+/−)-9-(2-Methoxy-benzylamino)-2-pyrimidin-4-yl-5,6,8,9-tetrahydro-7-oxa-1,4a-diaza-benzocyclohepten-4-one] | 254 to 256 | – |
| COc1ccc(S(N)(=O)=O)cc1C(=O)NC1COCCn2c1nc(-c1ccncn1)cc2=O (racemic) [compound No. 7, (+/−)-2-Methoxy-N-(4-oxo-2-pyrimidin-4-yl-5,6,8,9-tetrahydro-4H-7-oxa-1,4a-diaza-benzocyclohepten-9-yl)-5-sulfamoyl-benzamide] | 257 to 259 | 0.5 |

Source: patent US8507470B2, “Substituted arylamide oxazepinopyrimidone derivatives” (Sanofi, priority 2008, dated 2013)
